Data as given in patent publication US9737520B2, “Aclidinium for use in improving the quality of sleep in respiratory patients” (Almirall, S.A., priority 2011, dated 2017).

Key:
[1] = test system: patients with moderate-to-severe COPD; experiment: Phase IIa randomised, double-blind, double-dummy, crossover trial; sleep difficulties score on patient diary card (Example 3); format: in vivo, human; conditions: 15 days; for average score (+/-SEM), change in sleep difficulties score with respect to baseline: aclidinium 400 μg BID, tiotropium 18 μg QD, score 0-4
Procedure: In a Phase IIa randomised, double-blind, double-dummy, crossover trial, patients with moderate-to-severe COPD received inhaled aclidinium 400 μg BID, tiotropium 18 μg QD and placebo for 15 days, with a 9-15 day washout between treatment periods.
The incidence of sleep difficulties was recorded daily on a patient diary card. As in Example 1, the scores ranged from 0 for none to 1-4 for increasing severity of the sleep difficulties. The change in the score produced by each treatment with respect to the baseline was then measured.

[2] = to two inactive metabolites; cited from earlier work
respiratory patients = conditions: administration in the evening versus only in the morning; cited from earlier work

Structure (SMILES)	average score (+/-SEM), change in sleep difficulties score with respect to baseline [1]	hydrolysis in human plasma [2]	statistical difference of the sleep difficulties score with placebo ([1]; aclidinium 400 μg BID (p<0.05), tiotropium 18 μg QD (p>0.05))	bronchodilation during the night (respiratory patients)
O=C(O[C@H]1C[N+]2(CCCOc3ccccc3)CCC1CC2)C(O)(c1cccs1)c1cccs1 [aclidinium, 3(R)-(2-hydroxy-2,2-dithien-2-ylacetoxy)-1-(3-phenoxypropyl)-1-azoniabicyclo[2.2.2]octane]	−0.123 (0.089)	rapidly hydrolysed	–	–
C[N+]1(C)[C@@H]2C[C@@H](OC(=O)C(O)(c3cccs3)c3cccs3)C[C@H]1[C@@H]1O[C@@H]12 [tiotropium]	−0.011 (0.091)	–	no statistically significant difference	does not produce more bronchodilation during the night
